Measured values as given in US20120263784A1, “EMERGENCY CONTRACEPTIVE” (LYKA LABS LIMITED, priority 2009, published 2012).

Columns and labels:
[1] = in vivo; details: rat, po, 10 ug
Method: Size of the drug particles and liposomes in all the formulations was kept between 10-15 μm, as the particles with 10-20 μm are all deposited in the nasal cavity, whereas particles smaller than 1 μm pass with inspired air into the lungs.
Suspension containing 10-μg levonorgestrel was administered intranasally in three different group of rats.
Blood samples were collected at specific time points and plasma levonorgestrel concentrations were estimated. The drug plasma concentration at each sampling time point were plotted against time in hr.
The mucociliary clearance under normal conditions rapidly clears the applied material since there is a little time of contact between the drug and the mucosa. […] CS acts by opening tight junction between epithelial cells.

[2] = in vivo; details: rat, po
Method: Similarly, 10-μg of LN suspension was administered orally. Blood samples were collected at specific time points and plasma LN concentrations were estimated. The drug plasma concentration at each sampling time points were plotted against time in hr.
Various pharmacokinetic parameters (Cmax, Tmax and t1/2) were determined from drug plasma concentration-time curve. The area under the plasma level curve was calculated by the trapezoidal rule.

For `C#C[C@]1(O)CC[C@H]2[C@@H]3CCC4=CC(=O)CC[C@@H]4[C@H]3CC[C@@]21CC` [levonorgestrel], the Cmax [1] was 14.4 ng/mL, the Tmax [1] was 2.1 h and the half-life [1] was 16.9 h. The Cmax [2] was 14.4 ng/mL and the half-life [2] was 16.9 h.
